Columns and labels:
carotid body [1] = assay: Carotid body sensory activity ex vivo (carotid sinus nerve single unit discharge), mice
Experimental: (§1) Sensory activity from carotid bodies ex vivo was recorded as previously described (Peng, Y. J., et al., PNAS, 2003, 100, 10073-78; Peng Y. J., et. al., J. Physiol., 2006, 577, 705-716). Briefly, carotid bodies along with the sinus nerves were harvested from anaesthetized mice or rats, placed in a recording chamber (volume, 250 μl) and superfused with warm physiological saline (35° C.) at a rate of 2.5 ml/min having the following composition (mM): NaCl (140), KCl (5.4), CaCl2 (2.5), MgCl2 (0.5), HEPES (5.5), D-glucose (11), sucrose (5), and the solution was bubbled with 100% O2 and pH was adjusted to 7.35. Carotid bodies were challenged with graded hypoxia by switching the perfusate equilibrated with gas mixtures containing varying levels of O2. For assessing the carotid body response to CO2, bicarbonate-buffered medium equilibrated with either […] (baseline) or 90% 02+10% CO2 balance N2. Clearly identifiable action potentials (2-3 active units) were recorded from one of the nerve bundles with a suction electrode and stored in a computer via a data acquisition system (PowerLab/8P, AD Instruments Pty Ltd, Australia). ‘Single’ units were selected based on the height and duration of the individual action potentials using a spike discrimination program (Spike Histogram Program, Power Laboratory, AD Instruments). In each carotid body, at least two chemoreceptor units were analyzed. The PO2, and PCO2 of the superfusion medium were determined by a blood gas analyzer (ABL 5, Radiometer, Copenhagen, Denmark).
(§2) Rats and mice were treated with DL-propargylglycine (Sigma; 200 mg/kg) or Cr(III) Mesoporphyrin IX chloride (CrM459, Frontier Scientific, Logan, Utah; 1 mg/kg) intraperitoneally 2-3 h before acute experiments on anesthetized animals. NaHS (Sigma chemicals, MO) was given acutely to the ex vivo carotid body preparation. In the in vitro assays for H2S measurements, known concentrations of HO-2 inhibitor and CO donor (tricarbonyldichlororuthenium, [Ru(CO)3Cl2]2, Sigma, USA) were added to cell lysates. All solutions with drugs were prepared fresh during the experiments.
(§3) In unsedated mice RR (breaths/min), VT (μl), minute ventilation [VE (ml/min)=RR×VT], O2 consumption (VO2, ml/min), and CO2 production (VCO2 ml/min) were analyzed. Respiratory variables (RR and VT) were averaged for at least 20 consecutive breaths over 5 min of inspired O2 and CO2 challenge. VT, VE, VO2 and VCO2 were normalized to body weight. Carotid body sensory activity (discharge from ‘single’ units) was averaged during 3 min of baseline and during the 3 min of gas challenge and expressed as impulses per second unless otherwise stated. The number of secretory events and the amount of catecholamine secreted per secretory event were analyzed in each experiment and the data were expressed as total catecholamines secreted. Average data are presented as mean±S.E.M. Statistical significance was assessed by either ANOVA or two-way ANOVA with repeated measures followed by Tukey's test. p values <0.05 were considered significant.

carotid body [2] = assay: Carotid body sensory activity ex vivo (carotid sinus nerve single unit discharge), rats
Experimental: as §1, §2, §3

[3] = test system: H2S generation in carotid bodies; assay: Measurement of H2S levels in carotid body homogenates, rats; type: biochemical
Experimental: (§4) H2S levels in the carotid body were assayed as follows. Briefly, carotid bodies were pooled (4 carotid bodies per experiment in rats; 6 carotid bodies per experiment in mice) and tissue homogenates were prepared in 100 mM potassium phosphate buffer, pH 7.4. The enzyme reaction was carried out in sealed tubes flushed with either N2 or different levels of O2—N2 gas mixtures. The PO2 of the reaction medium was determined by blood gas analyzer (ABL5). The assay mixture in a total volume of 500 μl contains (in final concentration): L-cysteine, (800 μM); pyridoxal 5′-phosphate, (80 μM); potassium phosphate buffer, pH 7.4, (100 mM); and tissue homogenate (2 μg protein). The reaction mixture was incubated at 37° C. for 1 h and at the end of the reaction, alkaline zinc acetate (1% w/v; 250 up and trichloroacetic acid (10% v/v) was added sequentially to trap H2S generated and to stop the reaction, respectively. The zinc sulfide formed was reacted sequentially with acidic N,N-dimethyl-p-phenylenediamine sulfate (20 μM) and ferric chloride (30 μM) and the absorbance was measured at 670 nm using a micro-plate reader. A standard curve relating the concentration of Na2S and absorbance was used to calculate H2S concentration and expressed as nanomoles of H2S formed per hour per milligram protein.
as §2

[4] = test system: neonatal adrenal medullary chromaffin cells (AMC); assay: Catecholamine secretion from neonatal adrenal medullary chromaffin cells by amperometry; type: cell-based, rats; conditions: 40 mM K+, AMC from PAG treated rat pups; FIG. 6B
Experimental: The protocols for preparation of chromaffin cells and measurements of catecholamine secretion by amperometry are as follows. Briefly, adrenal glands were harvested from anesthetized mice and rats aged P10. Chromaffin cells were enzymatically dissociated, plated on collagen (type VII; Sigma) coated coverslips, and maintained at 37° C. in a 5% CO2 incubator for 12-24 h. The growth medium consisted of F-12 K medium (Invitrogen) supplemented with 10% horse serum, 5% fetal bovine serum, and 1% Penicillin/streptomycin/glutamine cocktail (Invitrogen). Catecholamine secretion from chromaffin cells was monitored by amperometry using carbon fiber electrodes. […] Normoxic solutions were equilibrated with room air (PO2˜146 mmHg), and hypoxic solutions were equilibrated with appropriate gas mixtures that yielded medium PO2, of ˜30-40 mmHg as measured by blood gas analyzer. […]
In unsedated mice RR (breaths/min), VT (μl), minute ventilation [VE (ml/min)=RR×VT], O2 consumption (VO2, ml/min), and CO2 production (VCO2 ml/min) were analyzed. […] Carotid body sensory activity (discharge from ‘single’ units) was averaged during 3 min of baseline and during the 3 min of gas challenge and expressed as impulses per second unless otherwise stated. […]

[5] = test system: H2S generation in adrenal glands; assay: H2S generation in adrenal glands of rat pups; type: biochemical, rats; conditions: PAG treated rat pups vs vehicle; data not shown
[6] = Respiration (rate and depth) in spontaneously hypertensive and Sprague-Dawley rats, whole body polysomnography; type: in vivo; conditions: FIG. 14
Experimental: FIG. 14. […] Spontaneously hypertensive rats (SHR) were treated with the CSE inhibitor propargylglycine. Their respiration was measured using whole body polysomnography. The control animals were Sprague-Dawley rats.

[7] = test system: H2S generation in carotid bodies; assay: Measurement of H2S levels in carotid body homogenates, mice; type: biochemical; conditions: 1 μM, normoxia, FIG. 5A
Experimental: as §4, with “protein. […]” for “protein.”

[8] = systemic administration (1 mg/kg i.p.), CSE+/+ mice, FIG. 5B-D

**Q.** What does the source list for `C#CCC(N)C(=O)O` (racemic) [PAG, DL-propargylglycine]?
**A.** carotid body sensory response to hypoxia (carotid body [1]; CSE+/+ mice treated systemically with PAG (200 mg/kg i.p. 2-3 h before), FIG. 9): loss of the hypoxic response; carotid body hypoxic response, acute application (carotid body [1]; acute application of PAG to the carotid body): ineffective in preventing the hypoxic response; carotid body response to CO2 (carotid body [2]; PAG treated rats (same rats tested for hypoxia), FIG. 3C): significantly augmented; carotid body sensory response to hypoxia (carotid body [2]; PAG treated rats vs vehicle, FIG. 3B): significantly attenuated; basal H2S levels in carotid body ([3]; PAG treated rats (vehicle=266±61)): 147±50 nmol/h/mg protein; reduction of basal H2S levels in carotid body ([3]; PAG treated rats vs vehicle, p<0.05): 55%; hypoxia-evoked H2S generation in carotid bodies ([3]; PAG treated rats, graded hypoxia, FIG. 3A): nearly absent; K+-evoked catecholamine secretion [4]: unaffected; hypoxia-induced increase of H2S generation in adrenal glands [5]: greatly reduced or absent; respiration frequency ([6]; control Sprague-Dawley rats treated with PAG): reducing respiration frequency very slightly; breathing pattern ([6]; spontaneously hypertensive rats (SHR) treated with PAG): normalized

**Q.** For `CCC1=C(C)c2cc3[n-]c(cc4nc(cc5[n-]c(cc1n2)c(C)c5CCC(=O)O)C(CCC(=O)O)=C4C)c(C)c3CC.[Cl][Cr+2]` [Cr (III) MP, Cr (III) mesoporphyrin IX chloride], which “baseline carotid body activity” value (carotid body [1]; [8]) is on record?
**A.** significantly increased

**Q.** What about the “carotid body hypoxic response” value (carotid body [1]; [8]) of the same compound?
**A.** potentiated

**Q.** And the “increase of H2S generation in carotid bodies” value ([7]; CSE+/+ mice)?
**A.** 6 fold

**Q.** And the “increase of H2S generation in carotid bodies” value ([7]; CSE−/− (mutant) mice)?
**A.** abolished

**Q.** And the “H2S generation in carotid bodies under normoxia” value ([3]; rat carotid bodies, 1 and 100 μM, FIG. 13A)?
**A.** enhanced

**Q.** With `N[C@@H](CS)C(=O)O` [L-cysteine] as the compound, how does the “effect on carotid body hypoxic response” value (carotid body [2]; 100 μM L-cysteine, isolated rat carotid body, FIG. 10) read?
**A.** no significant effect

**Q.** What does the source list for `[Na+].[SH-]` [NaHS]?
**A.** carotid body sensory activity (carotid body [1]; exogenous NaHS 100 μM, CSE+/+ and CSE−/− mice, FIG. 11): augmented; carotid body response in Ca2+-free and EGTA containing medium (carotid body [2]; 100 μM NaHS, rats, FIG. 4B): abolished; onset of carotid body response after application (carotid body [2]; NaHS, activity returned to baseline after termination, FIG. 4A): within seconds; carotid body sensory activity (carotid body [2]; exogenous NaHS, rats, FIG. 4A): augmented

**Q.** With `O=[C]=[Ru]([Cl])([Cl])(=[C]=O)=[C]=O` [[Ru(CO)3Cl2]2, tricarbonyldichlororuthenium] as the compound, how does the “H2S generation in carotid bodies under hypoxia” value ([3]; rat carotid bodies, hypoxia PO2=38 mmHg, 1 and 10 μM, FIG. 13B) read?
**A.** inhibited H2S generation by hypoxia nearly to the levels seen under normoxia

**Q.** Which results are given for `COc1ccc(Cl)cc1C(=O)NCCc1ccc(S(=O)(=O)NC(=O)NC2CCCCC2)cc1` [glibenclamide]?
**A.** prevention of carotid body response to NaHS (carotid body [2]; 100 μM glibenclamide, 100 μM NaHS, rats, FIG. 12): failed to prevent; prevention of carotid body response to hypoxia (carotid body [2]; 100 μM glibenclamide, hypoxia PO2=42 mmHg, rats, FIG. 12): failed to prevent

Source: patent US10688096B2, “Methods for treatment of sleep-related breathing disorders” (The University of Chicago, priority 2010, dated 2020)
